How the values were obtained:
Papayas ‘Golden’ [1] = test: Example 1: papaya skin color rating; type: in vivo; details: for Skin color ratings: 100 ppb of MCP, scale 1 green to 5 yellow
Description: Papayas ‘Golden’ were harvested in Linhares—Espírito Santo—Brazil. The harvested fruits were packed in MAP Bags and put in cardboard boxes.
(§1) The appropriate weight of papayas was placed in each bag after harvest. Bags were placed in the same cardboard boxes used to export the fruits. Papayas then were cold stored at (11° C.) at the Laboratory.
(§2) The Test Protocol that was used was as follows. 36 MAP bags were packed. Each bag held approximately 3.8 kg (8.4 lb) of papayas. One such bag was packed in each cardboard box. Total weight of papayas in MAP bags was approximately 137 kg. Approximately 91 kg of papayas were placed into cardboard boxes identical to those used for the MAP bags.
(§3) The MAP-packaged papayas were packaged as follows: Nine fruits, approximately 3.8 kg were carefully placed into microperforated bags, and the bags were sealed by twisting the open side of the bag, folding down the twisted end, and placing a rubber band around the twisted and folded end of the bag.
All papayas were kept at cold temperature (11° C.) during 27 days and after that the fruits (packed in MAP bags or not) were put in room temperature (22° C.) during 8 days.
One day after harvest, when the papayas had around 25 lbf of average firmness, each treatment set was marked, placed in a hermetical chamber at cold temperature (11° C.). All chambers were of equal size and packed the same way. Treatment was for 12 hours. In the chambers for the 3 “MCP” treatment groups, at the beginning of the treatment period, SmartFresh™ were placed in the chamber. The amount of SmartFresh™ was chosen to achieve the indicated concentration of 1-methylcyclopropene in the atmosphere of the chamber.
(§4) Evaluation for skin color and firmness was as follows. Day “zero” was the day the papayas were removed from the chamber and placed in storage.
(§5) The Papaya Skin Color was rated with the following scale: 1: green; 2: approximately 25%; 3: approximately 50% colored; 4: approximately 75% colored; 5: yellow.

Papayas ‘Golden’ [2] = test: Example 2 (yellow stage): papaya skin color rating; type: in vivo; details: for Skin color ratings: 500 ppb of MCP, scale 1 green to 5 yellow
Description: (§6) A similar test to Example 1 but papayas are tested during their yellow stage. Papayas ‘Golden’ were harvested in Linhares—Espírito Santo—Brazil. The fruits were packed in MAP Bags and put in cardboard boxes.
(§7) The fruits were first left at room temperature during 3 days to reach yellow maturity stage.
(§8) After that the appropriate weight of papayas was placed in each bag after harvest. Bags were placed in the same cardboard boxes used to export the fruits. Papayas then were cold stored at (11° C.) at the Laboratory.
as §2, with “18” for “36”, “68” for “137”, “68” for “91”
as §3
(§9) All papayas were kept at cold temperature (11° C.) during 26 days and after that the fruits (packed in MAP bags or not) were put in room temperature (22° C.) during 8 days.
(§10) After the 3 days for maturation at room temperature, when the papayas had around 5 lbf of average firmness, each treatment set was marked, placed in a hermetical chamber at cold temperature (11° C.). All chambers were of equal size and packed the same way. Treatment was for 12 hr. In the chambers for the 2 “MCP” treatment groups, at the beginning of the treatment period, SmartFresh™ were placed in the chamber. The amount of SmartFresh™ was chosen to achieve the indicated concentration of 1-methylcyclopropene in the atmosphere of the chamber.
as §4, §5

Papayas ‘Golden’ [3] = test: Example 2 (yellow stage): weight loss; type: in vivo, papaya; details: for Weight loss: 500 ppb of MCP
Description: as §6, §7, §8
as §2, with “18” for “36”, “68” for “137”, “68” for “91”
as §3, §9, §10
Weight loss was measured using the difference in weight observed in selected papayas from each treatment. These fruits were weighted before the cold storage and then the same fruits were weighted on the evaluations days.

Papayas ‘Golden’ [4] = test: Example 2 (yellow stage): percentage of fruits with ideal internal pulp firmness (2.5-7.0 lbf); type: in vivo, papaya; details: 500 ppb of MCP, ideal = between 2.5 and 7.0 lbf
Description: as §6, §7, §8
as §2, with “18” for “36”, “68” for “137”, “68” for “91”
as §3, §9, §10
For the Pulp Firmness evaluation two measurements were done, one for External Firmness and another for Internal Firmness. For External Firmness, the papayas had the skin removed with a peeler and the pulp firmness was measured with a Firmness Texture Analyzer (FTA) with a probe of 8 mm. For Internal Firmness, the papayas were cut transversally and a measurement close to the center of the fruit was taken with the FTA.
The desirable internal pulp firmness for consumption of papayas is between 2.5 and 7.0 lbf. The percentage of fruits with internal pulp firmness between 2.5 and 7.0 lbf was calculated.

Papayas ‘Golden’ [5] = test: Example 3: papaya skin color rating, MAP bags with different perforations; type: in vivo; details: for Skin color ratings: 100 ppb of MCP, scale 1 green to 5 yellow
Description: Papayas ‘Golden’ were harvested in Linhares—Espírito Santo—Brazil. The fruits were packed in MAP Bags and put in cardboard boxes.
as §1
as §2, with “40” for “36”, “One of” for “One”, “152” for “137”, “8” for “91”
as §3, with “kg,” for “kg”, “MAP-bags,” for “bags,”
All papayas were kept at cold temperature (11° C.) during 14 days and after that the fruits (packed in MAP bags or not) were put in room temperature (24° C.) during 5 days.
One day after harvest, when the papayas had around 30 lbf of average firmness, each treatment set was marked and placed in a hermetical chamber at cold temperature (11° C.). All chambers were of equal size and packed the same way. Treatment was for 12 hours.
In the chambers, SmartFresh™ was placed at the beginning of the treatment period for the 5 “MCP” treatment groups. The amount of SmartFresh™ was chosen to achieve the indicated concentration of 1-methylcyclopropene in the atmosphere of the chamber.
as §4, §5

[6] = MAP bag, 26 days at 11° C. then 0 days @ 22° C.
[7] = MAP bag, 26 days at 11° C. then 4 days @ 22° C.
[8] = MAP bag, 26 days at 11° C. then 8 days @ 22° C.
[9] = No Bag, 26 days at 11° C. then 0 days @ 22° C.
[10] = No Bag, 26 days at 11° C. then 4 days @ 22° C.
[11] = No Bag, 26 days at 11° C. then 8 days @ 22° C.

CC1=CC1 [MCP, 1-methylcyclopropene] was tested, and the “papayas color, in words” value (Papayas ‘Golden’ [1]; 1-MCP alone (no MAP)) was “did not hold the papayas color”, the “Skin color ratings” value (Papayas ‘Golden’ [1]; MAP bag, 27 days at 11° C. then 0 days @ 22° C.) was 2.14 and the “Skin color ratings” value (Papayas ‘Golden’ [1]; MAP bag, 27 days at 11° C. then 4 days @ 22° C.) was 2.74. The “Skin color ratings” value (Papayas ‘Golden’ [1]; MAP bag, 27 days at 11° C. then 8 days @ 22° C.) was 3.46, the “Skin color ratings” value (Papayas ‘Golden’ [1]; No Bag, 27 days at 11° C. then 0 days @ 22° C.) was 1.70 and the “Skin color ratings” value (Papayas ‘Golden’ [1]; No Bag, 27 days at 11° C. then 4 days @ 22° C.) was 4.28. For the same compound, the “Skin color ratings” value (Papayas ‘Golden’ [1]; No Bag, 27 days at 11° C. then 8 days @ 22° C.) was 4.44, the “papayas color, in words” value (Papayas ‘Golden’ [2]; 1-MCP alone (no MAP)) was “did not hold the papayas color” and the “Skin color ratings” value (Papayas ‘Golden’ [2]; [6]) was 2.18. For the same compound, the “Skin color ratings” value (Papayas ‘Golden’ [2]; [7]) was 3.62, the “Skin color ratings” value (Papayas ‘Golden’ [2]; [8]) was 4.88 and the “Skin color ratings” value (Papayas ‘Golden’ [2]; [9]) was 2.70. For the same compound, the “Skin color ratings” value (Papayas ‘Golden’ [2]; [10]) was 4.91, the “Skin color ratings” value (Papayas ‘Golden’ [2]; [11]) was 5.00 and the “weight loss, in words” value (Papayas ‘Golden’ [3]; 1-MCP alone (no MAP)) was “elevated weight loss”. It also gave a Weight loss (Papayas ‘Golden’ [3]; [6]) of 0.68%, a Weight loss (Papayas ‘Golden’ [3]; [7]) of 1.21% and a Weight loss (Papayas ‘Golden’ [3]; [8]) of 2.09%. The Weight loss (Papayas ‘Golden’ [3]; [9]) was 5.42%, the Weight loss (Papayas ‘Golden’ [3]; [10]) was 9.07% and the Weight loss (Papayas ‘Golden’ [3]; [11]) was 16.53%. For the same compound, the “Percentage of fruits with ideal internal pulp firmness” value (from here on “Percentage of fruits”) (Papayas ‘Golden’ [4]; [6]) was 77.08%, the “Percentage of fruits” value (Papayas ‘Golden’ [4]; [7]) was 28.57% and the “Percentage of fruits” value (Papayas ‘Golden’ [4]; [8]) was 0.00%. The “Percentage of fruits” value (Papayas ‘Golden’ [4]; [9]) was 60.87%, the “Percentage of fruits” value (Papayas ‘Golden’ [4]; [10]) was 12.90% and the “Percentage of fruits” value (Papayas ‘Golden’ [4]; [11]) was 0.00%. The “papayas color, in words” value (Papayas ‘Golden’ [5]; 1-MCP alone (no MAP)) was “did not hold the papayas color”, the Skin color ratings (Papayas ‘Golden’ [5]; 24 Perf. MAP bag, 14 days at 11° C. then 0 days @ 24° C.) was 1.60 and the Skin color ratings (Papayas ‘Golden’ [5]; 24 Perf. MAP bag, 14 days at 11° C. then 3 days @ 24° C.) was 2.04. It also gave a Skin color ratings (Papayas ‘Golden’ [5]; 24 Perf. MAP bag, 14 days at 11° C. then 5 days @ 24° C.) of 3.75, a Skin color ratings (Papayas ‘Golden’ [5]; 48 Perf. MAP bag, 14 days at 11° C. then 0 days @ 24° C.) of 1.96 and a Skin color ratings (Papayas ‘Golden’ [5]; 48 Perf. MAP bag, 14 days at 11° C. then 3 days @ 24° C.) of 3.02. The Skin color ratings (Papayas ‘Golden’ [5]; 48 Perf. MAP bag, 14 days at 11° C. then 5 days @ 24° C.) was 4.52, the Skin color ratings (Papayas ‘Golden’ [5]; 90 Perf. MAP bag, 14 days at 11° C. then 0 days @ 24° C.) was 1.71 and the Skin color ratings (Papayas ‘Golden’ [5]; 90 Perf. MAP bag, 14 days at 11° C. then 3 days @ 24° C.) was 3.18. It also gave a Skin color ratings (Papayas ‘Golden’ [5]; 90 Perf. MAP bag, 14 days at 11° C. then 5 days @ 24° C.) of 4.36, a Skin color ratings (Papayas ‘Golden’ [5]; 180 Perf. MAP bag, 14 days at 11° C. then 0 days @ 24° C.) of 1.73 and a Skin color ratings (Papayas ‘Golden’ [5]; 180 Perf. MAP bag, 14 days at 11° C. then 3 days @ 24° C.) of 4.13. The Skin color ratings (Papayas ‘Golden’ [5]; 180 Perf. MAP bag, 14 days at 11° C. then 5 days @ 24° C.) was 4.84, the Skin color ratings (Papayas ‘Golden’ [5]; No Bag, 14 days at 11° C. then 0 days @ 24° C.) was 1.82 and the Skin color ratings (Papayas ‘Golden’ [5]; No Bag, 14 days at 11° C. then 3 days @ 24° C.) was 4.11. The Skin color ratings (Papayas ‘Golden’ [5]; No Bag, 14 days at 11° C. then 5 days @ 24° C.) was 4.96 and the “skin coloring delay and external pulp firmness retention, in words” value (Papayas ‘Golden’ [5]; combination of 1-MCP and MAP bag versus any treatment alone) was “synergistic effect”.

— patent US20190246658A1, “METHODS OF HANDLING PAPAYA” (AGROFRESH INC., priority 2013, published 2019)
